# From patent US11285132B2, “Uses of indolinone compounds” (Oncternal Therapeutics, Inc., priority 2016, dated 2022)
# Tests used:
# [1] = tested on: 6 DLBCL cell lines (TMD8, U2932, HBL1, OCI-LY-18, WSU-DLCL2, DOHH2); assay: Cell cycle analysis and Annexin V staining; assay type: cell-based; settings: 24, 48, 72 h
# Description: FIGS. 18A and 18B show apoptosis and cell cycle distribution of TK-216 in DLBCL cell lines. FIG. 18A) Induction of apoptosis in DLBCL cell lines exposed to TK-216 (500 nM) for 24, 48 or 72 hrs. In the figures are shown four representative (two ABC and two GCB) results. FIG. 18B) Cell cycle distribution in DLBCL cell lines treated with 500 nM of TK-216 for 24, 48 or 72 hrs. In the figure, two representative (one ABC and one GCB) results are shown. DMSO treatment was used as a control.
# (§1) 56 lymphoma cell lines [27 diffuse large B cell lymphoma (DLBCL); 10 mantle cell lymphoma; 6 marginal zone lymphoma; 5 anaplastic large T-cell lymphoma; 8 others] were exposed to TK-216 increasing doses for 72 h using a Tecan D300e Digital Dispenser and 384 well plates. Cell proliferation was measured with MTT. In vivo study was done in NOD-SCID mice; treatments were started with approximately sc 60 mm3 tumor volumes. Sensitivity was not affected by the lymphoma cell of origin (B vs T; activated B cell type DLBCL versus germinal center type DLBCL) or MYC and TP53 status. There was a non-statistically significant trend for lower sensitivity in cell lines bearing BCL2 chromosomal translocation (P=0.07, DLBCL only; P=0.06, all cell lines).
# OCI-Ly19 = assay: 72 hr CellTiter-Glo, DLBCL cell line; assay type: cell-based; settings: Homo sapiens
# DOHH2 = assay: 72 hr CellTiter-Glo, DLBCL cell line; assay type: cell-based; settings: Homo sapiens, DOHH-2
# 56 lymphoma cell lines = assay: MTT proliferation, 56 lymphoma cell lines, 72 h; assay type: cell-based; settings: 95% C.I.: 367-506, read-out: median IC50
# Description: as §1
# two MCL cell lines = assay: Combination with lenalidomide in MCL cell lines; assay type: cell-based
# Description: Cell lines were exposed to YK-4-279 or TK-216, alone or in combination with other compounds, for 72 h using a Tecan D300e Digital Dispenser and 96 well plates. Cell proliferation was measured with MTT. Synergy was determined with the Chou-Talalay combination index. Gene expression profiling (GEP) was performed with the Illumina HumanHT 12 Expression BeadChips. In vivo studies were done in NOD-SCID mice and treatments started with 60 mm3 tumor volumes sc.
# Since lenalidomide is active in mantle cell lymphoma (MCL), the synergism of the combination of TK-216 and lenalidomide was confirmed also in two MCL cell lines.
# EWS-FLI1 = target: T1, EWS-FLI1 (Homo sapiens, UniProt Q01543+Q01844); assay: EWS-FLI1 / NROB1 reporter-luciferase transcription in COS7 cells; assay type: cell-based; settings: COS7 cells transfected with a EWS-FLI1 responsive promoter; read-out: EC50, transcriptional decrease
# T1 construct: EWS (part of EWSR1, Q01844); expressed in transfected cells; host or cells: COS7
# T1 sequence (Q01543 220-452 limits assumed, one chain of several): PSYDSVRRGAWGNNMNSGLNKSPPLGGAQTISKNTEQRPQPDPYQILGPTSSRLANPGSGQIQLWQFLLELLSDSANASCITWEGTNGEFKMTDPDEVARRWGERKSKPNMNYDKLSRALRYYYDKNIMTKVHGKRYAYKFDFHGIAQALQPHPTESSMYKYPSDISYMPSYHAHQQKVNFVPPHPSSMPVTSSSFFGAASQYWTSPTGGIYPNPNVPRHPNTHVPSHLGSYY
# Source text: TK216 is a first in class, small molecule that directly binds EWS-FLI1 inhibiting the biological activity of ETS-family transcription factor oncoproteins and is currently under clinical investigation in patients with Ewing sarcoma.
# TK216 reduced transcriptional activity in COS7 cells co-transfected with EWS-FLI1 and NROB1 reporter-luciferase plasmids which contain EWS-FLI1 DNA-binding sites, as shown in FIG. 3.
# Kasumi-1 = assay: 72 hr CellTiter-Glo, AML cell line; assay type: cell-based; settings: Homo sapiens
# TMD-8 tumors = assay: TMD-8 DLBCL-ABC xenograft model in nude mice; assay type: in vivo
# Description: The anti-tumor activity of TK216 was assessed in nude mice harboring TMD-8 tumors, a DLBCL-ABC xenograft model. TK216 was administered orally as a solution at 100 mg/kg BID for 13 days.
# MOLM-13 = assay: 72 hr CellTiter-Glo, AML cell line; assay type: cell-based; settings: Homo sapiens
# U2932 = assay: 72 hr CellTiter-Glo, DLBCL cell line; assay type: cell-based; settings: Homo sapiens
# IRF4 = assay: Protein levels in cells; assay type: cell-based; settings: similarly to lenalidomide
# Source text: (§2) With the aim to understand the mechanism of action of YK-4-279 and TK-216, the baseline RNA expression levels of the different ETS factors were correlated with sensitivity to the drugs. SPIB was the gene presenting the most significant negative correlation with both YK-4-279 and TK-216, especially among the ABC DLBCL cell lines (P<0.05). SPIB is a known oncogene for ABC DLBCL (Lenz et al, PNAS 2008) and is involved in the response to lenalidomide in ABC DLBCL (Yang et al, Cancer Cell 2012). YK-4-279 inhibits the binding of EWS1-FLI1 to the helicases RHA and DDX5 (Selvanathan et al, PNAS 2012). Thus, it was assessed whether YK-4-279 and TK-216 can have a similar effect on SPIB and whether they induce cellular effects similar to lenalidomide. […] In ABC DLBCL, the ETS inhibitor YK-4-279 and its clinical derivative TK-216 interfere with SPIB and helicases involved in RNA editing. Moreover, both compounds act similarly to lenalidomide inhibiting IRF4 and upregulating IRF7 and synergize with the IMID in both ABC DLBCL and MCL.
# IRF7 = assay: Protein levels in cells; assay type: cell-based; settings: similarly to lenalidomide
# Source text: as §2
# HBL-1 = assay: 72 hr CellTiter-Glo, DLBCL cell line; assay type: cell-based; settings: HBL1
# DLBCL cell lines = assay: Apoptosis by cleaved-Caspase 3 detection; assay type: cell-based; settings: various concentrations, 18 h
# Description: Cells were treated with various concentrations of TK216 for 18 h and apoptosis was assessed by detection of cleaved-Caspase 3.
# MOLM-16 = assay: 72 hr CellTiter-Glo, AML cell line; assay type: cell-based; settings: MOLM16
# ML-2 = assay: 72 hr CellTiter-Glo, AML cell line; assay type: cell-based; settings: Homo sapiens
# SPIB to DDX5 = target: T2, SPIB to DDX5 (Homo sapiens, UniProt Q01892); assay: Co-IP of SPIB with helicases in ABC DLBCL cell lines; assay type: cell-based; settings: 500 nM, 4-10 h
# T2 construct: endogenous in cells
# T2 sequence (Q01892 whole entry): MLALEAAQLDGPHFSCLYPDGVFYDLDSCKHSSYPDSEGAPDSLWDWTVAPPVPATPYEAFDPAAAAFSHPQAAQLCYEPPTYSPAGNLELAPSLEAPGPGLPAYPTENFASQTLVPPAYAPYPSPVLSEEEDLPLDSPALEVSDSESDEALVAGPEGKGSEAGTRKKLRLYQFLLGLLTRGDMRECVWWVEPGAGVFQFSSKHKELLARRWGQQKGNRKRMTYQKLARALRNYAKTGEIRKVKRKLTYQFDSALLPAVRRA
# Source text: as §2
# SPIB to RHA = target: T3, SPIB to RHA (Homo sapiens, UniProt Q01892); assay: as above; assay type: cell-based; settings: 500 nM, 4-10 h
# T3 construct: endogenous in cells
# T3 sequence (Q01892 whole entry): as above
# Source text: as §2
# WSU-DLCL2 = assay: 72 hr CellTiter-Glo, DLBCL cell line; assay type: cell-based; settings: Homo sapiens, WSUDLCL2
smiles,measurement,setting,value
"O=C(CC1(O)C(=O)Nc2c(Cl)ccc(Cl)c21)c1ccc(C2CC2)cc1 (centres unmarked) [TK216, 4,7-Dichloro-3-(2-(4-cyclopropylphenyl)-2-oxoethyl)-3-hydroxyindolin-2-one]",cell cycle and apoptosis,[1],time-dependent apoptosis was preceded by a G2/M arrest
same,IC50,OCI-Ly19,106 nM
same,IC50,DOHH2,160 nM
same,IC50,56 lymphoma cell lines,449 nM
same,combination of TK-216 and lenalidomide,two MCL cell lines,synergism
same,EC50,EWS-FLI1,< 100 nM
same,IC50,Kasumi-1,393 nM
same,tumor growth inhibition,"TMD-8 tumors; 100 mg/kg BID orally, 13 days, vs vehicle control",77%
same,tolerability,"TMD-8 tumors; daily oral administration, xenograft models of DLBCL",well-tolerated
same,IC50,MOLM-13,228 nM
same,IC50,U2932,127 nM
same,IRF4 protein in cells,IRF4,decreased IRF4
same,IRF7 protein in cells,IRF7,upregulated IRF7
same,IC50,HBL-1,304 nM
same,apoptosis (cleaved-Caspase 3),DLBCL cell lines,induced apoptosis
same,IC50,MOLM-16,129 nM
same,IC50,ML-2,291 nM
same,binding of SPIB to DDX5,SPIB to DDX5,"to a lesser extent, to DDX5 was decreased"
same,binding of SPIB to RHA,SPIB to RHA,decreased
same,IC50,WSU-DLCL2,897 nM
